≈ marks a conversion by molar mass, not a printed value.
Key:
Details in all cases: 72 hours
human colon (HT29) = assay: MTT cytotoxicity assay, human colon (HT29); type: cell-based
Procedure: (§1) After 72 hours, the assay was terminated and percent cyotoxicities calculated.

human lung (L132) = assay: MTT cytotoxicity assay, human lung (L132); type: cell-based
Procedure: as §1

lymphoma cells (U937) = assay: MTT cytotoxicity assay, lymphoma cells (U937); type: cell-based, human
Procedure: as §1

human prostate (DU145) = assay: MTT cytotoxicity assay, human prostate (DU145); type: cell-based
Procedure: as §1

[1] = system: ovarian cancer cells (PA-1); assay: MTT cytotoxicity assay, ovarian cancer cells (PA-1); type: cell-based, human
Procedure: as §1

leukemia cells (MOLT-4) = assay: MTT cytotoxicity assay, leukemia cells (MOLT-4); type: cell-based, human
Procedure: as §1

human larynx (HeP.2) = assay: MTT cytotoxicity assay, human larynx (HeP.2); type: cell-based
Procedure: as §1

Compound | ED50 Colon HT-29 (human colon (HT29)) [µg/mL] | ED50 Lung L 132 (human lung (L132)) [µg/mL] | ED50 Lymphoma U937 (lymphoma cells (U937)) [µg/mL] | ED50 Prostate DU 145 (human prostate (DU145)) [µg/mL] | ED50 Ovary PA-I [1] [µg/mL] | ED50 Leukemia MOLT-4 (leukemia cells (MOLT-4)) [µg/mL] | ED50 Larynx Hep. 2 (human larynx (HeP.2)) [µg/mL]
C=CC(=O)OC(=O)C12CCC(C(=C)C)C1C1CCC3C4(C)CCC(O)C(C)(C)C4CCC3(C)C1(C)CC2 (stereo not drawn) [Derivative 1101] | >10 | 1.7 (≈ 3.33 µM) | 1.2 (≈ 2.35 µM) | >10 | 3.5 (≈ 6.85 µM) | 1.9 (≈ 3.72 µM) | 1.6 (≈ 3.13 µM)
C=C(C)C1CCC2(C(=O)OCC(=O)OC)CCC3(C)C(CCC4C5(C)CCC(NCCO)C(C)(C)C5CCC43C)C12 (stereo not drawn) [Derivative 1027] | 7.2 (≈ 12.6 µM) | 7.0 (≈ 12.2 µM) | 4.5 (≈ 7.87 µM) | 5.7 (≈ 9.97 µM) | >4.0 | 2.0 (≈ 3.5 µM) | 4.2 (≈ 7.34 µM)
COC(=O)COC(=O)C12CCC(C(C)C)C1C1CCC3C4(C)CCC(NC(C)=O)C(C)(C)C4CCC3(C)C1(C)CC2 (stereo not drawn) [Derivative 1025] | >10 | 3.2 (≈ 5.6 µM) | >10 | >4 | >4.0 | 1.0 (≈ 1.75 µM) | >10
C=C(C)C1CCC2(C(=O)O)CCC3(C)C(CCC4C5(C)CCC(OC(=O)c6cccc(C(F)(F)F)c6)C(C)(C)C5CCC43C)C12 (stereo not drawn) [Derivative 939] | >10 | 2.7 (≈ 4.29 µM) | 5.7 (≈ 9.06 µM) | >10 | >4.0 | 1.4 (≈ 2.23 µM) | 4.0 (≈ 6.36 µM)
CC(C)C1CCC2(C(=O)O)CCC3(C)C(CCC4C5(C)CCC(OC(=O)c6cccc(C(F)(F)F)c6)C(C)(C)C5CCC43C)C12 (stereo not drawn) [Derivative 940] | >10 | 2.6 (≈ 4.12 µM) | 0.8 (≈ 1.27 µM) | >4 | 3.8 (≈ 6.02 µM) | 0.4 (≈ 0.634 µM) | 5.4 (≈ 8.56 µM)
C=C(C)C1CCC2(C(=O)O)CCC3(C)C(CCC4C5(C)CCC(OC(=O)c6ccc(CCCCCCC)cc6)C(C)(C)C5CCC43C)C12 (stereo not drawn) [Derivative 1138] | >10 | 7.0 (≈ 10.6 µM) | 1.1 (≈ 1.67 µM) | >10 | 1.3 (≈ 1.97 µM) | 2.0 (≈ 3.03 µM) | 2.0 (≈ 3.03 µM)
COc1ccc(NNC2CCC3(C)C(CCC4(C)C3CCC3C5C(C(C)C)CCC5(C(=O)O)CCC34C)C2(C)C)cc1 (stereo not drawn) [Derivative 912] | 0.35 (≈ 0.605 µM) | >4 | 1.2 (≈ 2.07 µM) | 8.5 (≈ 14.7 µM) |  | 1.0 (≈ 1.73 µM) | 7.0 (≈ 12.1 µM)
CC(C)C1CCC2(C(=O)O)CCC3(C)C(CCC4C5(C)CCC(NC(=O)CCl)C(C)(C)C5CCC43C)C12 (stereo not drawn) [Derivative 1022] | >10 | 4.7 (≈ 8.8 µM) | 5.5 (≈ 10.3 µM) | >10 | 0.6 (≈ 1.12 µM) | 1.8 (≈ 3.37 µM) | 3.5 (≈ 6.55 µM)
C=CC(=O)OC(=O)C12CCC(C(C)C)C1C1CCC3C4(C)CCC(O)C(C)(C)C4CCC3(C)C1(C)CC2 (stereo not drawn) [Derivative 1103] | 10.0 (≈ 19.5 µM) | 4.0 (≈ 7.8 µM) | 1.0 (≈ 1.95 µM) | >4 | 1.5 (≈ 2.93 µM) | 1.9 (≈ 3.71 µM) | 3.0 (≈ 5.85 µM)
C=C(C)C1CCC2(C(=O)O)CCC3(C)C(CCC4C5(C)CCC(OC(=O)c6ccccc6C(F)(F)F)C(C)(C)C5CCC43C)C12 (stereo not drawn) [Derivative 942] | >10 | 4.0 (≈ 6.36 µM) | 2.2 (≈ 3.5 µM) | >10 | >4.0 | 0.5 (≈ 0.795 µM) | 10.0 (≈ 15.9 µM)

Reference: patent publication US6670345B1 (Dabur Research Foundation, priority 1997, dated 2003)
